Measured values: patent publication US20240050428A1 (Cullgen (Shanghai), Inc., priority 2020, published 2024)
pIC50: −log10 of the molar value. Where two headings read alike, the source gives them in different places.

Legend:
[1] = system: MV4;11 cells; assay: Cell viability assay (CellTiter-Glo) in MV4;11 cells, alone or with gilteritinib; assay type: cell-based; conditions: Homo sapiens, MV4;11 cells, three days, CellTiter-Glo, read-out: MV4
[2] = system: MOLM-13 cells; assay: Cell viability assay (CellTiter-Glo) in MOLM-13 cells, alone or with gilteritinib; assay type: cell-based; conditions: Homo sapiens, MOLM-13 cells, three days, CellTiter-Glo
[3] = 72 h, compound alone (without gilteritinib), 11 IC50
[4] = 72 h, with gilteritinib 10 nM, 11 IC50 gilteritinib
[5] = 72 h, compound alone (without gilteritinib), read-out: MOLM-13 IC50
[6] = 72 h, with gilteritinib 20 nM, read-out: MOLM-13 IC50 gilteritinib
[7] = MV4-11, 72 h, compound alone (without gilteritinib), 11 IC50
[8] = MV4-11, 72 h, with gilteritinib 10 nM, 11 IC50 gilteritinib
[9] = MOLM-13, 72 h, compound alone (without gilteritinib), read-out: MOLM-13 IC50
[10] = MOLM-13, 72 h, with gilteritinib 20 nM, read-out: MOLM-13 IC50 gilteritinib

| Structure (SMILES) | pIC50 [1, 3] | pIC50 [1, 4] | pIC50 [2, 5] | pIC50 [2, 6] | pIC50 [1, 7] | pIC50 [1, 8] | pIC50 [2, 9] | pIC50 [2, 10] |
| --- | --- | --- | --- | --- | --- | --- | --- | --- |
| O=C1CCC(N2C(=O)c3ccc(NCCCC(=O)N4CCN(c5ccccc5)CC4)cc3C2=O)C(=O)N1 (stereo not drawn) [GS-319, 2-(2,6-Dioxopiperidin-3-yl)-5-((4-oxo-4-(4-phenylpiperazin-1-yl)butyl)amino)isoindoline-1,3-dione] | < 6.00 | < 6.00 | < 6.00 | 7.00 to 8.00 | – | – | – | – |
| CN(c1ccccc1)C1CCN(CC(=O)NCCNc2ccc3c(c2)C(=O)N(C2CCC(=O)NC2=O)C3=O)CC1 (stereo not drawn) [GS-320] | < 6.00 | < 6.00 | < 6.00 | 6.00 to 7.00 | – | – | – | – |
| CN(c1ccccn1)C1CCN(CC(=O)NCCNc2ccc3c(c2)C(=O)N(C2CCC(=O)NC2=O)C3=O)CC1 (stereo not drawn) [GS-321, N-(2-((2-(2,6-Dioxopiperidin-3-yl)-1,3-dioxoisoindolin-5-yl)amino)ethyl)-2-(4-(methyl(pyridin-2-yl)amino)piperidin-1-yl)acetamide] | – | – | – | – | < 6.00 | < 6.00 | < 6.00 | 6.00 to 7.00 |
| CN(c1ccc2[nH]ccc2n1)C1CCN(CC(=O)NCCNc2ccc3c(c2)C(=O)N(C2CCC(=O)NC2=O)C3=O)CC1 (stereo not drawn) [GS-322, N-(2-((2-(2,6-Dioxopiperidin-3-yl)-1,3-dioxoisoindolin-5-yl)amino)ethyl)-2-(4-(methyl(1H-pyrrolo[3,2-b]pyridin-5-yl)amino)piperidin-1-yl)acetamide] | – | – | – | – | < 6.00 | < 6.00 | < 6.00 | < 6.00 |
| O=C1CCC(N2C(=O)c3ccc(NCCCCC(=O)N4CCC(n5cc(-c6cnc7ccccc7n6)cn5)CC4)cc3C2=O)C(=O)N1 (stereo not drawn) [GS-323, 2-(2,6-Dioxopiperidin-3-yl)-5-((5-oxo-5-(4-(4-(quinoxalin-2-yl)-1H-pyrazol-1-yl)piperidin-1-yl)pentyl)amino)isoindoline-1,3-dione] | – | – | – | – | 6.00 to 7.00 | > 8.00 | < 6.00 | > 8.00 |
| O=C1CCC(N2C(=O)c3ccc(NCCOCCC(=O)N4CCC(n5cc(-c6cnc7ccccc7n6)cn5)CC4)cc3C2=O)C(=O)N1 (stereo not drawn) [GS-324, 2-(2,6-Dioxopiperidin-3-yl)-5-((2-(3-oxo-3-(4-(4-(quinoxalin-2-yl)-1H-pyrazol-1-yl)piperidin-1-yl)propoxy)ethyl)amino)isoindoline-1,3-dione] | – | – | – | – | < 6.00 | 6.00 to 7.00 | < 6.00 | 7.00 to 8.00 |
| O=C1CCC(N2C(=O)c3ccc(NC(=O)CCCCC(=O)N4CCC(n5cc(-c6cnc7ccccc7n6)cn5)CC4)cc3C2=O)C(=O)N1 (stereo not drawn) [GS-325, N-(2-(2,6-Dioxopiperidin-3-yl)-1,3-dioxoisoindolin-5-yl)-6-oxo-6-(4-(4-(quinoxalin-2-yl)-1H-pyrazol-1-yl)piperidin-1-yl)hexanamide] | – | – | – | – | < 6.00 | 6.00 to 7.00 | < 6.00 | 6.00 to 7.00 |
| O=C1CCC(N2C(=O)c3ccc(NCCCCCCN4CCC(n5cc(-c6cnc7ccccc7n6)cn5)CC4)cc3C2=O)C(=O)N1 (stereo not drawn) [GS-326, 2-(2,6-Dioxopiperidin-3-yl)-5-((6-(4-(4-(quinoxalin-2-yl)-1H-pyrazol-1-yl)piperidin-1-yl)hexyl)amino)isoindoline-1,3-dione] | – | – | – | – | < 6.00 | < 6.00 | < 6.00 | 6.00 to 7.00 |
| O=C1CCC(N2C(=O)c3ccc(NC(=O)CCCC(=O)N4CCC(n5cc(-c6cnc7ccccc7n6)cn5)CC4)cc3C2=O)C(=O)N1 (stereo not drawn) [GS-327, N-(2-(2,6-Dioxopiperidin-3-yl)-1,3-dioxoisoindolin-5-yl)-5-oxo-5-(4-(4-(quinoxalin-2-yl)-1H-pyrazol-1-yl)piperidin-1-yl)pentanamide] | – | – | – | – | < 6.00 | 6.00 to 7.00 | < 6.00 | < 6.00 |
| O=C1CCC(N2C(=O)c3ccc(NCCC[C@H]4C[C@H](n5cc(-c6cc(Cl)ccn6)cn5)C4)cc3C2=O)C(=O)N1 (stereo partly drawn) [GS-328, 5-((3-(trans-3-(4-(4-Chloropyridin-2-yl)-1H-pyrazol-1-yl)cyclobutyl)propyl)amino)-2-(2,6-dioxopiperidin-3-yl)isoindoline-1,3-dione] | – | – | – | – | 6.00 to 7.00 | 7.00 to 8.00 | < 6.00 | 7.00 to 8.00 |
| O=C1CCC(N2Cc3cc(OCCCCCC(=O)N4CCN(c5ccccc5)CC4)ccc3C2=O)C(=O)N1 (stereo not drawn) [GS-329, 3-(1-Oxo-5-((6-oxo-6-(4-phenylpiperazin-1-yl)hexyl)oxy)isoindolin-2-yl)piperidine-2,6-dione] | < 6.00 | < 6.00 | < 6.00 | 6.00 to 7.00 | – | – | – | – |
| O=C1CCC(N2C(=O)c3ccc(NC(=O)COCCC(=O)N4CCC(n5cc(-c6cnc7ccccc7n6)cn5)CC4)cc3C2=O)C(=O)N1 (stereo not drawn) [GS-330, N-(2-(2,6-Dioxopiperidin-3-yl)-1,3-dioxoisoindolin-5-yl)-2-(3-oxo-3-(4-(4-(quinoxalin-2-yl)-1H-pyrazol-1-yl)piperidin-1-yl)propoxy)acetamide] | – | – | – | – | < 6.00 | < 6.00 | < 6.00 | < 6.00 |
| O=C1CCC(N2C(=O)c3ccc(NCCCCCCN4CCC(O)CC4)cc3C2=O)C(=O)N1 (stereo not drawn) [GS-331, 2-(2,6-Dioxopiperidin-3-yl)-5-((6-(4-hydroxypiperidin-1-yl)hexyl)amino)isoindoline-1,3-dione] | – | – | – | – | < 6.00 | < 6.00 | < 6.00 | 6.00 to 7.00 |
| O=C(CN1CCC(N2CCN(c3ccccn3)CC2)C1)NCc1ccc2c(c1)C(=O)N(C1CCC(=O)NC1=O)C2=O (stereo not drawn) [GS-332, N-((2-(2,6-Dioxopiperidin-3-yl)-1,3-dioxoisoindolin-5-yl)methyl)-2-(3-(4-(pyridin-2-yl)piperazin-1-yl)pyrrolidin-1-yl)acetamide] | – | – | – | – | < 6.00 | < 6.00 | < 6.00 | < 6.00 |
| O=C1CCC(N2C(=O)c3ccc(NCCCCCC(=O)N4CCC(O)(c5ccccc5)CC4)cc3C2=O)C(=O)N1 (stereo not drawn) [GS-333, 2-(2,6-Dioxopiperidin-3-yl)-5-((6-(4-hydroxy-4-phenylpiperidin-1-yl)-6-oxohexyl)amino)isoindoline-1,3-dione] | – | – | – | – | < 6.00 | 6.00 to 7.00 | < 6.00 | 6.00 to 7.00 |
| O=C1CCC(N2C(=O)c3ccc(NCCCCCC(=O)N4CC(Oc5ccccc5)C4)cc3C2=O)C(=O)N1 (stereo not drawn) [GS-334, 2-(2,6-Dioxopiperidin-3-yl)-5-((6-oxo-6-(3-phenoxyazetidin-1-yl)hexyl)amino)isoindoline-1,3-dione] | – | – | – | – | < 6.00 | < 6.00 | < 6.00 | 6.00 to 7.00 |
| O=C1CCC(N2C(=O)c3ccc(NCCCCCCN4CCC(C5CCC(O)CC5)CC4)cc3C2=O)C(=O)N1 (stereo not drawn) [GS-335, 2-(2,6-Dioxopiperidin-3-yl)-5-((6-(4-(4-hydroxycyclohexyl)piperidin-1-yl)hexyl)amino)isoindoline-1,3-dione] | – | – | – | – | < 6.00 | < 6.00 | < 6.00 | 6.00 to 7.00 |
| O=C1CCC(N2C(=O)c3ccc(NCCCCCC(=O)N4CC(Nc5ccccc5)C4)cc3C2=O)C(=O)N1 (stereo not drawn) [GS-336, 2-(2,6-Dioxopiperidin-3-yl)-5-((6-oxo-6-(3-(phenylamino)azetidin-1-yl)hexyl)amino)isoindoline-1,3-dione] | – | – | – | – | < 6.00 | < 6.00 | < 6.00 | < 6.00 |
| CN(c1ccccc1)C1CN(C(=O)CCCCCNc2ccc3c(c2)C(=O)N(C2CCC(=O)NC2=O)C3=O)C1 (stereo not drawn) [GS-337, 2-(2,6-Dioxopiperidin-3-yl)-5-((6-(3-(methyl(phenyl)amino)azetidin-1-yl)-6-oxohexyl)amino)isoindoline-1,3-dione] | – | – | – | – | < 6.00 | < 6.00 | < 6.00 | 6.00 to 7.00 |
| O=C1CCC(N2C(=O)c3ccc(NCCCCCCn4cc(-c5cnc6ccccc6n5)cn4)cc3C2=O)C(=O)N1 (stereo not drawn) [GS-339, 2-(2,6-Dioxopiperidin-3-yl)-5-((6-(4-(quinoxalin-2-yl)-1H-pyrazol-1-yl)hexyl)amino)isoindoline-1,3-dione] | – | – | – | – | 6.00 to 7.00 | > 8.00 | < 6.00 | 7.00 to 8.00 |
| O=C1CCC(N2C(=O)c3ccc(CNC(=O)C(F)(F)c4cccc(-n5cc(-c6cnc7ccccc7n6)cn5)c4)cc3C2=O)C(=O)N1 (stereo not drawn) [GS-340, N-((2-(2,6-Dioxopiperidin-3-yl)-1,3-dioxoisoindolin-5-yl)methyl)-2,2-difluoro-2-(3-(4-(quinoxalin-2-yl)-1H-pyrazol-1-yl)phenyl)acetamide] | – | – | – | – | 6.00 to 7.00 | < 6.00 | < 6.00 | < 6.00 |
| COc1ccnc(-c2cnn([C@H]3C[C@H](CCCNc4ccc5c(c4)C(=O)N(C4CCC(=O)NC4=O)C5=O)C3)c2)c1 (stereo partly drawn) [GS-341, 2-(2,6-Dioxopiperidin-3-yl)-5-((3-(trans-3-(4-(4-methoxypyridin-2-yl)-1H-pyrazol-1-yl)cyclobutyl)propyl)amino)isoindoline-1,3-dione] | – | – | – | – | 7.00 to 8.00 | > 8.00 | 6.00 to 7.00 | 7.00 to 8.00 |
| O=C1CCC(N2C(=O)c3ccc(NC(=O)COCC(=O)N4CCC(n5cc(-c6cnc7ccccc7n6)cn5)CC4)cc3C2=O)C(=O)N1 (stereo not drawn) [GS-342, N-(2-(2,6-Dioxopiperidin-3-yl)-1,3-dioxoisoindolin-5-yl)-2-(2-oxo-2-(4-(4-(quinoxalin-2-yl)-1H-pyrazol-1-yl)piperidin-1-yl)ethoxy)acetamide] | – | – | – | – | < 6.00 | < 6.00 | < 6.00 | < 6.00 |
| O=C1CCC(N2C(=O)c3ccc(NCCCN4CCC(n5cc(-c6cnc7ccccc7n6)cn5)CC4)cc3C2=O)C(=O)N1 (stereo not drawn) [GS-343] | – | – | – | – | < 6.00 | < 6.00 | 6.00 to 7.00 | 7.00 to 8.00 |
